Reference: patent publication US11213567B2, “ZAG-derived peptide and use thereof” (L&C Bio Co., LTD., priority 2017, dated 2022)

B1: Z0: ZAG protein, entire sequence of 298 amino acids (GenBank: AAH05306.1; SEQ ID NO: 19) (protein, listed as Homo sapiens)
chain: MVRMVPVLLSLLLLLGPAVPQENQDGRYSLTYIYTGLSKHVEDVPAFQALGSLNDLQFFRYNSKDRKSQPMGLWRQVEGMEDWKQDSQLQKAREDIFMETLKDIVEYYNDSNGSHVLQGRFGCEIENNRSSGAFWKYYYDGKDYIEFNKEIPAWVPFDPAAQITKQKWEAEPVYVQRAKAYLEEECPATLRKYLKYSKNILDRQDPPSVVVTSHQAPGEKKKLKCLAYDFYPGKIDVHWTRAGEVQEPELRGDVLHNGNGTYQSWVVVAVPPQDTAPYSCHVQHSSLAQPLVVPWEAS

How the values were obtained:
[1] = test system: IL-4; experiment: Atopic dermatitis efficacy test using T lymphocytes: IL-4 released after IL-2, ELISA; assay type: cell-based, human; design: key to T lymphocyte (human) IL-4: •: have statistical significance, determining as effective, compared with the positive control; settings: for IL-4 concentration released in cell culture medium: Example 1-5, FIG. 1E, IL-2 50 ng/mL 12 hours; for IL-4 concentration released in cell culture medium / IL-4: T lymphocytes, 1 μg/mL 24 hours; for T lymphocyte (human) IL-4: 1 μg/mL for 24 hours, then IL-2 50 ng/mL 12 hours; for IL-4: Example 2-5, FIG. 2E, compared with positive control (Pos)
Method: (§1) To select an amino acid sequence corresponding to a key active site of ZAG having efficacy in the alleviation of atopic symptoms from 18 peptide candidate groups, an atopic dermatitis efficacy test was performed. Five types of immune-related cells were treated with ZAG peptide candidate groups (Z1-Z18, SEQ ID NOs: 1 to 18, respectively) and the ZAG protein (Z0, SEQ ID NOs: 19) at a concentration of 1 μg/mL for 24 hours, and then treated with a stimulator suitable for each cell line for the listed time to confirm an immune response. The experiment was performed with a group treated with only a stimulator as a positive control experimental group, and a group treated with only a vehicle without a stimulator as a negative control experimental group (Table 2: Efficacy test method for atopic dermatitis). An inflammatory response-related enzyme used as a stimulator is produced by immune cells, and histamine initiates an inflammatory response. The immune cells migrating to a damaged region release cytokines such as tumor necrosis factor-α (TNF-α) and interleukin-6 (IL-6) to directly lyse foreign invasive substances or collect other immune cells to initiate an inflammatory response. An efficacy test using inflammation-inducing materials, interferon-γ and skin inflammation-related factor CCL-17/thymus- and activation-regulated chemokine (TARC) was also performed to confirm an immune response.
An atopic dermatitis efficacy test using T lymphocytes was performed with six peptide candidate groups (Z3, Z4, Z5, Z12, Z14, and Z15), which were determined to have efficacy from the results of Examples 1-1 to 1-4 described above. T lymphocytes were treated with 50 ng/mL of IL-2 as a stimulator for 12 hours, and a concentration of IL-4 released in a cell culture medium was confirmed by ELISA assay.
(§2) Various types of immune cells were treated with each of Z20mer-1, Z20mer-2, Z20mer-3, Z15mer-1, Z15mer-2, Z15mer-3 and Z15mer-4 at a concentration of 1 μg/mL for 24 hours, and then treated with a stimulator suitable for each cell line for the listed time to confirm an immune response. The atopic dermatitis efficacy test method was performed by the same method as described in Example 1 and Table 2.
(§3) The experiment was performed with experimental groups: 1) negative control: vehicle-treated group (Neg), 2) positive control: a group treated with only a stimulator (Pos), and 3) experimental group: groups treated with a stimulator and ZAG3 or a ZAG3-derived oligopeptide (Z20mer-1, Z20mer-2, Z20mer-3, Z15mer-1, Z15mer-2, Z15mer-3 or Z15mer-4). Concentrations were measured from cell culture by ELISA.
An experiment was performed on T lymphocytes using the target peptides selected through the previous experiment. As compared with the positive control (Pos), in all of the oligopeptide-treated groups (Z20mer-1, Z20mer-2, Z20mer-3, Z15mer-1, Z15mer-2, Z15mer-3, and Z15mer-4), IL-4 was reduced (FIG. 2E).

[2] = test system: IgE; experiment: Atopic dermatitis efficacy test using B lymphocytes (RPMI 1788): IgE released after LPS, ELISA; assay type: cell-based, human; design: key: •: have statistical significance, determining as effective, compared with the positive control; settings: then LPS 0.1 μg/mL 24 hours
Method: as §1
(§4) B lymphocytes (RPMI 1788) were treated with 0.1 μg/mL of LPS as a stimulator for 24 hours, and a concentration of IgE released in a cell culture medium was confirmed by ELISA assay.
as §2, §3
as §4, with “and then” for “and”, “assay. As compared with the positive control (Pos), in all of the oligopeptide-treated groups, IgE was reduced (FIG. 2D).” for “assay.”

[3] = test system: Histamine; experiment: Atopic dermatitis efficacy test using mast cells (RBL-2H3): histamine released after PMA and A23187, ELISA; assay type: cell-based, rat; design: key: •: have statistical significance, determining as effective, compared with the positive control; settings: 1 μg/mL for 24 hours, then PMA 1 μg/mL, A23187 1 μg/mL 12 hours
Method: as §1
Mast cells (RBL-2H3) were treated with 1 μg/mL of PMA and 1 μg/mL of A23187 as stimulators for 12 hours, and a concentration of histamine released in a cell culture medium was confirmed by ELISA assay.
as §2, §3
Mast cells (RBL-2H3) were treated with 1 μg/mL of PMA and 1 μg/mL of A23187 as simulators for 12 hours, and then a concentration of histamine released in a cell culture medium was confirmed by ELISA assay. As compared with the positive control (Pos), in all of the oligopeptide-treated groups, the histamine release was reduced (FIG. 2B).

[4] = test system: CCL17/TARC; experiment: Atopic dermatitis efficacy test using keratinocytes (HaCaT): CCL17/TARC released after TNF-α and IFN-γ, ELISA; assay type: cell-based, human; design: key to HaCaT (human) CCL17/TARC: •: have statistical significance, determining as effective, compared with the positive control; settings: for CCL17/TARC concentration released in cell culture medium: Example 2-3, FIG. 2C, HaCaT, 1 μg/mL 24 hours, TNF-α 0.4 μg/mL and IFN-γ 0.4 μg/mL 24 hours, compared with positive control (Pos); for HaCaT (human) CCL17/TARC: 1 μg/mL for 24 hours, then TNF-α 0.4 μg/mL, IFN-γ 0.4 μg/mL 24 hours
Method: as §1
Keratinocytes (HaCaT cells) were treated with 0.4 μg/mL of TNF-α and 0.4 μg/mL of IFN-γ as stimulators for 24 hours, and then a concentration of CCL17/TARC released in a cell culture medium was confirmed by ELISA assay.
as §2, §3

[5] = test system: IL-6; experiment: Atopic dermatitis efficacy test using macrophages (RAW 264.7): IL-6 released after LPS, ELISA; assay type: cell-based, mouse; design: key to RAW 264.7 (mouse) IL-6: •: have statistical significance, determining as effective, compared with the positive control; settings: for IL-6 concentration released in cell culture medium: Example 2-1, FIG. 2A, RAW 264.7, 1 μg/mL 24 hours, LPS 0.1 μg/mL 24 hours, compared with positive control (Pos); for RAW 264.7 (mouse) IL-6: 1 μg/mL for 24 hours, then LPS 0.1 μg/mL 24 hours
Method: as §1
Macrophages (RAW 264.7 cells) were treated with a stimulator LPS at a concentration of 0.1 μg/mL for 24 hours, and then the concentration of IL-6 released in a cell culture medium was confirmed by ELISA assay.
as §2, §3
Macrophages (RAW 264.7 cells) were treated with a stimulator LPS at a concentration of 0.1 μg/mL for 24 hours, and then a concentration of IL-6 released in a cell culture medium was confirmed by ELISA assay.

[6] = Table 3, 1 μg/mL for 24 hours, vs stimulator only
[7] = Table 5, 1 μg/mL for 24 hours, vs positive control

| Molecule | IL-4 concentration released in cell culture medium [1] | T lymphocyte (human) IL-4 ([1]; Table 3, vs stimulator only) | B lymphocyte (human) IgE [2, 6] | RBL-2H3 (rat) Histamine ([3]; Table 3, vs stimulator only) | CCL17/TARC concentration released in cell culture medium [4] | HaCaT (human) CCL17/TARC ([4]; Table 3, vs stimulator only) | IL-6 concentration released in cell culture medium [5] | RAW 264.7 (mouse) IL-6 ([5]; Table 3, vs stimulator only) | IL-4 [1] | T lymphocyte (human) IL-4 ([1]; Table 5, vs positive control) | B lymphocyte (human) IgE [2, 7] | RBL-2H3 (rat) Histamine ([3]; Table 5, vs positive control) | HaCaT (human) CCL17/TARC ([4]; Table 5, vs positive control) | RAW 264.7 (mouse) IL-6 ([5]; Table 5, vs positive control) |
| --- | --- | --- | --- | --- | --- | --- | --- | --- | --- | --- | --- | --- | --- | --- |
| Z3: ZAG protein-derived peptide, SEQ ID NO. 3: EDWKQDSQLQKAREDIFMETLKDIVEYYND (ZAG protein-derived peptide) | significantly decreased | • | • | • | significantly decreased | • | significantly decreased | • | – | – | – | – | – | – |
| Z4: ZAG protein-derived peptide, SEQ ID NO. 4: SNGSHVLQGRFGCEIENNRSSGAFWKYYYD (ZAG protein-derived peptide) | significantly decreased | • | • | • | – | • | – | • | – | – | – | – | – | – |
| Z5: ZAG protein-derived peptide, SEQ ID NO. 5: GKDYIEFNKEIPAWVPFDPAAQITKQKWEA (ZAG protein-derived peptide) | significantly decreased | • | • | • | – | • | – | • | – | – | – | – | – | – |
| Z14: ZAG protein-derived peptide, SEQ ID NO. 14: IFMETLKDIVEYYNDSNGSHVLQGRFGCEI (ZAG protein-derived peptide) | significantly decreased | • | • | • | – | • | – | • | – | – | – | – | – | – |
| Z15mer-3: ZAG3-derived oligopeptide, SEQ ID NO. 25: KAREDIFMETLKDIV (ZAG protein-derived peptide) | – | – | – | – | significantly decreased | – | significantly decreased | – | reduced | • | • | • | • | • |
| Z15mer-4: ZAG3-derived oligopeptide, SEQ ID NO. 26: IFMETLKDIVEYYND (ZAG protein-derived peptide) | – | – | – | – | significantly decreased | – | significantly decreased | – | reduced | • | • | • | • | • |
| B1 | – | • | • | • | – | • | – | • | – | – | – | – | – | – |
